Values of other authors in paper PMC9633261, “Preclinical evaluation and first in human study of Al^18F radiolabeled ODAP-urea-based PSMA targeting ligand for PET imaging of prostate cancer” (Frontiers in Oncology, 2022).
Where two headings read alike, the source gives them in different places.

Q: Which absorbed dose kidneys (ref [39]) does the source give for `O=C(O)CC[C@H](NC(=O)N[C@@H](CCCCNC(=O)c1ccc([18F])nc1)C(=O)O)C(=O)O` [^18F-DCFPyL] here?
A: 0.0945 mGy/MBq

Q: What does the source list for `O=C([O-])CN(CCN(CC(=O)[O-])Cc1cc(CCC(=O)NCCCCCC(=O)NCCCC[C@H](NC(=O)N[C@@H](CCC(=O)O)C(=O)O)C(=O)O)ccc1[O-])Cc1cc(CCC(=O)O)ccc1[O-].[68Ga+3].[OH3+]` [^68Ga-PSMA-11]?
A: absorbed dose kidneys (reported by Afshar-Oromieh et al. ref [37]): 0.262 mGy/MBq; absorbed dose kidneys (reported by Pfob et al. ref [38]): 0.121 mGy/MBq
